In PubChem BioAssay AID1259407 (Chemical Carcinogenesis Research Information System (CCRIS), 2018):
Calls of active or inactive are those of the source. How the calls were made is not given here.

Test system: CCRIS mutagenicity, Ames/micronucleus/aberration tests
Experiment: CCRIS mutagenicity studies
[1] = Test System: AMES SALMONELLA TYPHIMURIUM, Strain/Indicator: TA1535, Metabolic Activation: NONE, Method: PREINCUBATION
[2] = Test System: AMES SALMONELLA TYPHIMURIUM, Strain/Indicator: TA1537, Metabolic Activation: NONE, Method: PREINCUBATION
[3] = Test System: AMES SALMONELLA TYPHIMURIUM, Strain/Indicator: TA100, Metabolic Activation: NONE, Method: STANDARD PLATE
[4] = Test System: AMES SALMONELLA TYPHIMURIUM, Strain/Indicator: TA98, Metabolic Activation: NONE, Method: PREINCUBATION
[5] = Test System: AMES SALMONELLA TYPHIMURIUM, Strain/Indicator: TA100, Metabolic Activation: NONE, Method: PREINCUBATION

CCCCCCCCCc1ccc(O)cc1
mutagenic call (Test System: AMES SALMONELLA TYPHIMURIUM, Strain/Indicator: TA97, Metabolic Activation: NONE, Method: PREINCUBATION): inactive; negative
mutagenic call (Test System: AMES SALMONELLA TYPHIMURIUM, Strain/Indicator: TA97, Metabolic Activation: S-9, Method: PREINCUBATION): inactive; negative
mutagenic call (Test System: AMES SALMONELLA TYPHIMURIUM, Strain/Indicator: TA98, Metabolic Activation: RAT, LIVER, S-9, KC 500, Method: PREINCUBATION): inactive; negative
mutagenic call (Test System: AMES SALMONELLA TYPHIMURIUM, Strain/Indicator: TA98, Metabolic Activation: RAT, LIVER, S-9, SODIUM PHENOBARBITAL AND 5,6-BENZOFLAVONE, Method: PREINCUBATION): inactive; negative
mutagenic call (Test System: AMES SALMONELLA TYPHIMURIUM, Strain/Indicator: TA98, Metabolic Activation: S-9, Method: PREINCUBATION): inactive; negative
mutagenic call (Test System: AMES SALMONELLA TYPHIMURIUM, Strain/Indicator: TA100, Metabolic Activation: RAT, LIVER, S-9, KC 500, Method: PREINCUBATION): inactive; negative
mutagenic call (Test System: AMES SALMONELLA TYPHIMURIUM, Strain/Indicator: TA100, Metabolic Activation: RAT, LIVER, S-9, SODIUM PHENOBARBITAL AND 5,6-BENZOFLAVONE, Method: PREINCUBATION): inactive; negative
mutagenic call (Test System: AMES SALMONELLA TYPHIMURIUM, Strain/Indicator: TA100, Metabolic Activation: S-9, Method: PREINCUBATION): inactive; negative
mutagenic call (Test System: AMES SALMONELLA TYPHIMURIUM, Strain/Indicator: TA102, Metabolic Activation: RAT, LIVER, S-9, SODIUM PHENOBARBITAL AND 5,6-BENZOFLAVONE, Method: PREINCUBATION): inactive; negative
mutagenic call (Test System: AMES SALMONELLA TYPHIMURIUM, Strain/Indicator: TA102, Metabolic Activation: S-9, Method: PREINCUBATION): inactive; negative
mutagenic call (Test System: AMES SALMONELLA TYPHIMURIUM, Strain/Indicator: TA104, Metabolic Activation: NONE, Method: PREINCUBATION): inactive; negative
mutagenic call (Test System: AMES SALMONELLA TYPHIMURIUM, Strain/Indicator: TA104, Metabolic Activation: RAT, LIVER, S-9, SODIUM PHENOBARBITAL AND 5,6-BENZOFLAVONE, Method: PREINCUBATION): inactive; negative
mutagenic call (Test System: AMES SALMONELLA TYPHIMURIUM, Strain/Indicator: TA104, Metabolic Activation: S-9, Method: PREINCUBATION): inactive; negative
mutagenic call [1]: inactive; negative
mutagenic call (Test System: AMES SALMONELLA TYPHIMURIUM, Strain/Indicator: TA1535, Metabolic Activation: RAT, LIVER, S-9, KC 500, Method: PREINCUBATION): inactive; negative
mutagenic call (Test System: AMES SALMONELLA TYPHIMURIUM, Strain/Indicator: TA1535, Metabolic Activation: RAT, LIVER, S-9, SODIUM PHENOBARBITAL AND 5,6-BENZOFLAVONE, Method: PREINCUBATION): inactive; negative
mutagenic call [2]: inactive; negative
mutagenic call (Test System: AMES SALMONELLA TYPHIMURIUM, Strain/Indicator: TA1537, Metabolic Activation: RAT, LIVER, S-9, KC 500, Method: PREINCUBATION): inactive; negative
mutagenic call (Test System: AMES SALMONELLA TYPHIMURIUM, Strain/Indicator: TA1537, Metabolic Activation: RAT, LIVER, S-9, SODIUM PHENOBARBITAL AND 5,6-BENZOFLAVONE, Method: PREINCUBATION): inactive; negative
mutagenic call (Test System: AMES SALMONELLA TYPHIMURIUM, Strain/Indicator: TA1538, Metabolic Activation: NONE, Method: PREINCUBATION): inactive; negative
mutagenic call (Test System: AMES SALMONELLA TYPHIMURIUM, Strain/Indicator: TA1538, Metabolic Activation: RAT, LIVER, S-9, KC 500, Method: PREINCUBATION): inactive; negative
mutagenic call (Test System: E. COLI, Strain/Indicator: WP2UVRA/PKM101, Metabolic Activation: NONE, Method: PREINCUBATION): inactive; negative
mutagenic call (Test System: E. COLI, Strain/Indicator: WP2UVRA/PKM101, Metabolic Activation: RAT, LIVER, S-9, SODIUM PHENOBARBITAL AND 5,6-BENZOFLAVONE, Method: PREINCUBATION): inactive; negative
mutagenic call (Test System: E. COLI, Strain/Indicator: WP2 UVRA, Metabolic Activation: NONE, Method: PREINCUBATION): inactive; negative
mutagenic call (Test System: E. COLI, Strain/Indicator: WP2UVRA, Metabolic Activation: NONE, Method: PREINCUBATION): inactive; negative
mutagenic call (Test System: E. COLI, Strain/Indicator: WP2 UVRA, Metabolic Activation: RAT, LIVER, S-9, KC 500, Method: PREINCUBATION): inactive; negative
mutagenic call (Test System: E. COLI, Strain/Indicator: WP2UVRA, Metabolic Activation: RAT, LIVER, S-9, SODIUM PHENOBARBITAL AND 5,6-BENZOFLAVONE, Method: PREINCUBATION): inactive; negative

O=C(/C=C/c1cccc([N+](=O)[O-])c1)c1ccccc1
mutagenic call (Test System: AMES SALMONELLA TYPHIMURIUM, Strain/Indicator: TA98, Metabolic Activation: NONE, Method: STANDARD PLATE): inactive; negative
mutagenic call (Test System: AMES SALMONELLA TYPHIMURIUM, Strain/Indicator: TA98, Metabolic Activation: RAT, LIVER, S-9, AROCLOR 1254, Method: STANDARD PLATE): inactive; negative
mutagenic call [3]: inactive; negative
mutagenic call (Test System: AMES SALMONELLA TYPHIMURIUM, Strain/Indicator: TA100, Metabolic Activation: RAT, LIVER, S-9, AROCLOR 1254, Method: STANDARD PLATE): inactive; negative

c1ccc2c(c1)cc1ccc3c4ccccc4cc4ccc2c1c43
mutagenic call (Test System: HUMAN H1A1V2 CELLS, Strain/Indicator: TK LOCUS, Metabolic Activation: NONE, Method: SUSPENSION/PLATE): active; positive

O=[N+]([O-])c1ccccc1S(=O)(=O)O
mutagenic call [4]: inactive; negative
mutagenic call (Test System: AMES SALMONELLA TYPHIMURIUM, Strain/Indicator: TA98, Metabolic Activation: RAT, LIVER, S-9, KANECHLOR 500, Method: PREINCUBATION): inactive; negative
mutagenic call [5]: inactive; negative
mutagenic call (Test System: AMES SALMONELLA TYPHIMURIUM, Strain/Indicator: TA100, Metabolic Activation: RAT, LIVER, S-9, KANECHLOR 500, Method: PREINCUBATION): inactive; negative

CCOS(=O)(=O)OCC
mutagenic call (End Point: IN VITRO CHROMOSOMAL ABERRATIONS, Test System: CHL CELLS, Metabolic Activation: RAT, LIVER, S-9, SODIUM PHENOBARBITAL AND 5,6-BENZOFLAVONE): active; positive (structural changes)
mutagenic call (End Point: In vitro micronucleus, Test System: Chinese Hamster Ovary (CHO-WBL) cells, Metabolic Activation: None): active; positive (p<0.01)
mutagenic call [4]: active; positive
mutagenic call (Test System: AMES SALMONELLA TYPHIMURIUM, Strain/Indicator: TA98, Metabolic Activation: RAT LIVER S-9, PHENOBARBITAL AND BETA-NAPHTHOFLAVONE, Method: PREINCUBATION): active; positive
mutagenic call [5]: active; positive
mutagenic call [3]: active; positive
mutagenic call (Test System: AMES SALMONELLA TYPHIMURIUM, Strain/Indicator: TA100, Metabolic Activation: RAT LIVER S-9, PHENOBARBITAL AND BETA-NAPHTHOFLAVONE, Method: PREINCUBATION): active; positive
mutagenic call [1]: active; positive
mutagenic call (Test System: AMES SALMONELLA TYPHIMURIUM, Strain/Indicator: TA1535, Metabolic Activation: NONE, Method: STANDARD PLATE): active; positive
mutagenic call (Test System: AMES SALMONELLA TYPHIMURIUM, Strain/Indicator: TA1535, Metabolic Activation: RAT LIVER S-9, PHENOBARBITAL AND BETA-NAPHTHOFLAVONE, Method: PREINCUBATION): active; positive
mutagenic call [2]: active; positive
mutagenic call (Test System: AMES SALMONELLA TYPHIMURIUM, Strain/Indicator: TA1537, Metabolic Activation: RAT LIVER S-9, PHENOBARBITAL AND BETA-NAPHTHOFLAVONE, Method: PREINCUBATION): active; positive
mutagenic call (Test System: CHINESE HAMSTER OVARY, Strain/Indicator: CHO-K1-BH4 (HGPRT), Metabolic Activation: NONE, Method: STANDARD PLATE): active; positive
mutagenic call (Test System: CHINESE HAMSTER V-79, Strain/Indicator: V-79/6-THIOGUANINE, Metabolic Activation: NONE, Method: FLASK ASSAY): active; positive
mutagenic call (Test System: E.COLI, Strain/Indicator: WP2UVRA, Metabolic Activation: NONE, Method: PREINCUBATION): active; positive
mutagenic call (Test System: E.COLI, Strain/Indicator: WP2UVRA, Metabolic Activation: RAT LIVER S-9, PHENOBARBITAL AND BETA-NAPHTHOFLAVONE, Method: PREINCUBATION): active; positive

O=S(=O)(O)c1ccc(-c2nnc(-c3ccccn3)nc2-c2ccc(S(=O)(=O)O)cc2)cc1
mutagenic call (Test System: Mouse lymphoma, Strain/Indicator: L5178Y (tk+/tk-), Metabolic Activation: None, Method: Suspension/plate): inactive; negative
mutagenic call (Test System: Mouse lymphoma, Strain/Indicator: L5178Y (tk+/tk-), Metabolic Activation: Rat, Liver, S-9, Aroclor 1254, Method: Suspension/plate): inactive; negative
